In PMC10955468 (Frontiers in Pharmacology, 2024) one finds remaining activity and inhibition data, which are given here for three compounds.

Assay [1] addresses T1, TMEM206 (PAORAC/ASOR) (Homo sapiens, UniProt Q9H813).
T1 construct: gene PACC1; native full-length channel in HCT116 cells (whole-cell patch clamp); homo-trimer; current absent in TMEM206 knockout clones
In words: whole-cell patch clamp, HCT116. The format is cell-based. To be noted: HCT-116; read-out: % residual current at 100 μM. Background: In patch-clamp work, channel activity is measured electrically.

In assay [2] the target is T1, TMEM206 (PAORAC/ASOR). Kind of assay: whole-cell patch clamp, HCT116. The format is cell-based. To be noted: HCT-116, read-out: % inhibition at 100 μM.

T1 sequence (Q9H813 whole entry): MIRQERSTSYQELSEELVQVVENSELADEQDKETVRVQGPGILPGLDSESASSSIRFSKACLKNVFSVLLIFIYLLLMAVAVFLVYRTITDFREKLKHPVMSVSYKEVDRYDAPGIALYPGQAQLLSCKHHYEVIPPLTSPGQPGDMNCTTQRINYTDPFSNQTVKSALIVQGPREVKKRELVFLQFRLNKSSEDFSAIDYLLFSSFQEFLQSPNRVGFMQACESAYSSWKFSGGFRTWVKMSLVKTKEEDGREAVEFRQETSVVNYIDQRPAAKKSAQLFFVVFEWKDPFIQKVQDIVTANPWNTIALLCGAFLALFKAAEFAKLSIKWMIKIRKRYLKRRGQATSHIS

Turning to `Cc1cc(Cl)ccc1OC(C)C(=O)Nc1cc(Cl)ccc1C(=O)O` (stereo not drawn) [LBA, 4-chloro-2-(2-(4-chloro-2-methylphenoxy)propanamido)benzoic acid], on TMEM206 (PAORAC/ASOR) [1], the remaining activity at 100 µM was 53%.
Turning to `O=C(O)c1ccccc1Nc1cccc(C(F)(F)F)c1` [flufenamic acid], the inhibition at 100 µM at TMEM206 (PAORAC/ASOR) [2] amounted to 28%.
Regarding `O=C(O)c1cccnc1Nc1cccc(C(F)(F)F)c1` [niflumic acid], the remaining activity at 100 µM on TMEM206 (PAORAC/ASOR) [1] worked out at 38%.

The inhibition is the percentage by which the read-out fell short of the control.
